How the values were obtained:
[1] = system: HPMEC cells; assay: Annexin V apoptosis assay (FITC/PI, flow cytometry); type: cell-based, human; details: agent alone, without combination partner
Procedure: Cell cultures in the presence of anti-moesin antibodies as described in Example 1 were subjected to apoptosis assay as well as surface antigen assay, to assess the antibody's effect on promoting endothelial cell apoptosis and on intercellular expression of moesin (indicating the active form of the protein).
Annexin V assay was used to study apoptosis. Collected cells were washed with PBS, centrifuged, and added sequentially with 70% ethanol, […] (200 mg/l) and PI (20 mg/l). Cells were then stained with Annexin-V FITC/PI kit for double staining of FITC and PI, because viable cells are both FITC and PI negative, while cells that are in early apoptosis are FITC positive but PI negative, and cells that are in late apoptosis or already dead are both FITC and PI positive. Stained cells are analyzed using a flow cytometer for amount of apoptotic cells in the presence of variant testing agents. The percentage of cells in early apoptosis and the percentage of cells in late apoptosis or dead cells after treatment with the test groups and the control group were determined and the results are shown in FIG. 4(a) and FIG. 4(b) respectively.

[2] = system: human pulmonary microvascular endothelial cell line (HPMEC); assay: Cell proliferation assay; type: cell-based; details: agent alone; compared with negative control (Group 6, PBS); FIG. 3
Procedure: Cell proliferation assay were performed using a human pulmonary microvascular endothelial cell line (HPMEC). Cells were plated in each well on a 6-well plate at 10^6 cells/cm^2, and cultured at […] in the presence of various testing and control reagents as described below. After culturing for a determined period of time, cells were collected and labeled for flow cytometry analysis. Proliferation rates at 2 hrs, 24 hrs and 36 hrs were determined by dividing the mean OD570 value from the tested groups with the mean OD570 value from the group having the same number of cells as the test groups at the beginning of the cell culturing.
Tested and control groups are as follows:
2) Antibody against full length moesin protein (anti-Moesin);
3) Antibody against the C-terminal tail domain only (anti-M3);
4) TNF-alpha+anti-Moesin;
6) PBS solution (negative control)

## TNF-alpha
[1]
  cell apoptosis: could induce cell apoptosis but the effect is not as much as it in combination with anti-moesin or anti-M3
[2]
  cell proliferation rates: reduced cell proliferation rates but not as much as in combination with anti-moesin or anti-M3
